Measured values published in patent US20220265629A1, “TREATMENT OF SYSTOLIC DYSFUNCTION AND HEART FAILURE WITH REDUCED EJECTION FRACTION WITH THE COMPOUND (R)-4-(1-((3-(DIFLUOROMETHYL)-1-METHYL-1H-PYRAZOL-4-YL)SULFONYL)-1-FLUOROETHYL)-N-(ISOXAZOL-3-YL)PIPERIDINE-1-CARBOXAMIDE” (MyoKardia, Inc., priority 2019, published 2022).
Where two headings read alike, the source gives them in different places.

Assay: Food effect cross-over study, 200 mg (25 mg tablets), healthy volunteers: plasma pharmacokinetics
Type: in vivo, human
Details: for concentration at 36 h / concentration at 48 h / concentration at 72 h / AUC(0-inf) / AUC(0-t) / Cmax / Tmax / MRT / half-life: human, plasma; for concentration at 36 h: 36 hours postdose; for concentration at 48 h: 48 hours postdose; for concentration at 72 h: 72 hours postdose
Excerpt: This example describes a clinical study for establishing, in healthy volunteers, the effect of a high fat, high caloric meal on the PK profile of Compound I, as compared to administration of the drug in the fasted state. The study also was intended to determine the safety and tolerability after a single oral dose of Compound I in the fed and fasted state in healthy volunteers. The measurements of PK, PD, and other clinical parameters were done as described in Example 1 above.
This study was an open-label, randomized, two-period cross-over study in healthy volunteers aged 18-55 years. Subjects were screened up to 28 days before the first treatment period. Subjects were admitted to the clinical site on Day −1 (the day before dosing) of Period 1. Approximately half of the subjects randomly received a single dose of Compound I on Day 1 of the first treatment period after the ingestion of a high fat, high caloric breakfast, and the remainder were closed in the fasted state. Any subject with a preclose resting HR≥95 beats per minute (bpm) was considered ineligible and was not treated. Any subjects with an acute gastrointestinal disorder which could impact drug/food absorption (e.g., vomiting, diarrhea) were rescheduled. Subjects were confined to the clinic until Day 4, and discharged after the 72-hour postclose PK and laboratory samples and vital signs were obtained. After a washout between dosing from 7 to 10 days (or, after consultation with the Investigator, up to 21 days after initial dosing if the subject was unable to attend within the 7 to 10-day window), the subject was admitted for Period 2. The sequence of fed/fasted versus fasted/fed periods was randomized. Subjects returned after the second treatment period for a safety follow-up visit on Day 7 (±1 day).
In both treatment periods, Compound I was administered with 240 mL of water. In the fasted state, the subjects fasted for 10 hours before and for 4 hours after the administration of Compound I. Water could have been ingested up to 1 hour before and after 1 hour post dosing. In the fed state, the subjects fasted for 10 hours before and for 4 hours after the ingestion of the meal, but could have ingested water up to 1 hour before and 1 hour after dosing. In the fed state, the subjects started ingesting the high fat, high caloric meal within 30 minutes prior to Compound I administration and finished the meal within 30 minutes. The meal contained approximately 800 to 1000 calories with about 50% of the calories from fat. The meal consisted of approximately 150 calories from protein, 250 calories from carbohydrate, and 500-600 calories from fat. An example of the meal was a breakfast consisting of two eggs fried in butter, two strips of bacon, two slices of buttered toast, 4 ounces of hash brown potatoes, and 8 ounces of whole milk.
Each subject received two oral doses of 200 mg of Compound I formulated as 25 mg tablets (8 tablets) in a randomized, cross-over fashion, once in the fasted state and the other time after the ingestion of a high fat, high caloric breakfast. There was a washout of between 7 and 21 days between the administrations of the two closes. The Compound I drug substance was a crystalline, free-base, synthetic molecule with a molecular weight of 435.4.
Plasma drug concentrations were measured as described in Example 1 above. Blood samples to measure Compound I plasma concentration were collected at various time points, including on Day 1 preclose (1 hour prior to dosing) and at 1 (±5 min), 2 (±5 min), 3 (±5 min), 4 (+10 min), 5 (+10 min), 6 (+10 min), 9 (+20 min), 12 (+20 min), 18 (+30 min), 24 (+30 min), 36 (+30 min), 48 (+30 min), and 72 (+30 min) hours postclose on both treatment periods.
To assess the effect of food on the PK of Compound I, the two one-sided t-test procedure was used to construct 90% CI around the geometric mean ratios (fed/fasted) of plasma AUCinf, AUClast, and Cmax. […]

[1] = oral, Fed, read-out: Plasma concentration, Geometric Mean
[2] = oral, Fed, read-out: Plasma concentration, Mean
[3] = oral, Fed, read-out: Plasma concentration, Median
[4] = oral, Fasted, read-out: Plasma concentration, Geometric Mean
[5] = oral, Fasted, read-out: Plasma concentration, Mean
[6] = oral, Fasted, read-out: Plasma concentration, Median
[7] = subjects who completed both fasted and fed periods (N = 9)
[8] = subjects who completed both periods (N = 9)

Cn1cc(S(=O)(=O)[C@@](C)(F)C2CCN(C(=O)Nc3ccon3)CC2)c(C(F)F)n1 [Compound I, (R)-4-(1-((3-(difluoromethyl)-1-methyl-1H-pyrazol-4-yl)sulfonyl)-1-fluoroethyl)-N-(isoxazol-3-yl)piperidine-1-carboxamide]
concentration at 36 h [1]: 834 ng/mL | concentration at 36 h [2]: 881 ng/mL | concentration at 36 h [3]: 905 ng/mL | concentration at 48 h [4]: 306 ng/mL | concentration at 48 h [5]: 331 ng/mL | concentration at 48 h [6]: 346 ng/mL | concentration at 48 h [1]: 476 ng/mL | concentration at 48 h [2]: 526 ng/mL | concentration at 48 h [3]: 549 ng/mL | concentration at 72 h [4]: 93.2 ng/mL | concentration at 72 h [5]: 108 ng/mL | concentration at 72 h [6]: 112 ng/mL | concentration at 72 h [1]: 129 ng/mL | concentration at 72 h [2]: 161 ng/mL | concentration at 72 h [3]: 143 ng/mL | AUC(0-inf) (oral, N = 11, read-out: AUCinf, Fasted LSGM): 59400 ng·h/mL | AUC(0-inf) (oral, N = 11, read-out: AUCinf, Fed LSGM): 91600 ng·h/mL | AUC(0-t) (oral, N = 11, read-out: AUClast, Fasted LSGM): 57400 ng·h/mL | AUC(0-t) (oral, N = 11, read-out: AUClast, Fed LSGM): 88400 ng·h/mL | Cmax (oral, N = 11, read-out: Cmax, Fasted LSGM): 2300 ng/mL | Cmax (oral, N = 11, read-out: Cmax, Fed LSGM): 3640 ng/mL | Cmax (oral, fasted state, read-out: Cmax of mean plasma concentrations): 2310 ng/mL | Cmax (oral, fasted state, read-out: Cmax, Mean (SD)): 2350 ng/mL | Tmax (oral, fasted state, read-out: Tmax, Median (range)): 5 h | Tmax (oral, fasted state, read-out: tmax of mean plasma concentrations): 5 h | Cmax (oral, fed state, read-out: Cmax of mean plasma concentrations): 3200 ng/mL | Cmax (oral, fed state, read-out: Cmax, Mean (SD)): 3680 ng/mL | Tmax (oral, fed state, read-out: Tmax, Median (range)): 5.5 h | Tmax (oral, fed state, read-out: tmax of mean plasma concentrations): 6 h | AUC(0-inf) (oral, subjects who completed both fasted and fed periods (N = 9), read-out: AUCinf, Fasted LSGM): 61100 ng·h/mL | AUC(0-inf) (oral, subjects who completed both fasted and fed periods (N = 9), read-out: AUCinf, Fed LSGM): 93900 ng·h/mL | AUC(0-t) (oral, subjects who completed both fasted and fed periods (N = 9), read-out: AUClast, Fasted LSGM): 59000 ng·h/mL | AUC(0-t) (oral, subjects who completed both fasted and fed periods (N = 9), read-out: AUClast, Fed LSGM): 90500 ng·h/mL | Cmax (oral, subjects who completed both fasted and fed periods (N = 9), read-out: Cmax, Fasted LSGM): 2370 ng/mL | Cmax (oral, subjects who completed both fasted and fed periods (N = 9), read-out: Cmax, Fed LSGM): 3700 ng/mL | AUC(0-inf) (po, single 200 mg oral dose, Fasted (N = 10), read-out: AUCinf, Geometric Mean): 61000 ng·h/mL | AUC(0-inf) (po, single 200 mg oral dose, Fasted (N = 10), read-out: AUCinf, Mean): 62600 ng·h/mL | AUC(0-inf) (po, single 200 mg oral dose, Fasted (N = 10), read-out: AUCinf, Median): 66700 ng·h/mL | AUC(0-t) (po, single 200 mg oral dose, Fasted (N = 10), read-out: AUClast, Geometric Mean): 58800 ng·h/mL | AUC(0-t) (po, single 200 mg oral dose, Fasted (N = 10), read-out: AUClast, Mean): 60200 ng·h/mL | AUC(0-t) (po, single 200 mg oral dose, Fasted (N = 10), read-out: AUClast, Median): 64400 ng·h/mL | Cmax (po, single 200 mg oral dose, Fasted (N = 10), read-out: Cmax, Geometric Mean): 2320 ng/mL | Cmax (po, single 200 mg oral dose, Fasted (N = 10), read-out: Cmax, Mean): 2350 ng/mL | Cmax (po, single 200 mg oral dose, Fasted (N = 10), read-out: Cmax, Median): 2400 ng/mL | MRT (po, single 200 mg oral dose, Fasted (N = 10), read-out: MRT, Geometric Mean): 22.3 h | MRT (po, single 200 mg oral dose, Fasted (N = 10), read-out: MRT, Mean): 22.6 h | MRT (po, single 200 mg oral dose, Fasted (N = 10), read-out: MRT, Median): 23.9 h | half-life (po, single 200 mg oral dose, Fasted (N = 10), read-out: T1/2, z, Geometric Mean (converted)): 848 min | half-life (po, single 200 mg oral dose, Fasted (N = 10), read-out: T1/2, z, Mean (converted)): 857 min | half-life (po, single 200 mg oral dose, Fasted (N = 10), read-out: T1/2, z, Median (converted)): 893 min | Tmax (po, single 200 mg oral dose, Fasted (N = 10), read-out: Tmax, Geometric Mean): 4.58 h | Tmax (po, single 200 mg oral dose, Fasted (N = 10), read-out: Tmax, Mean): 4.7 h | Tmax (po, single 200 mg oral dose, Fasted (N = 10), read-out: Tmax, Median): 5 h | AUC(0-inf) (po, single 200 mg oral dose, Fed (N = 10), read-out: AUCinf, Geometric Mean): 91600 ng·h/mL | AUC(0-inf) (po, single 200 mg oral dose, Fed (N = 10), read-out: AUCinf, Mean): 93500 ng·h/mL | AUC(0-inf) (po, single 200 mg oral dose, Fed (N = 10), read-out: AUCinf, Median): 94000 ng·h/mL | AUC(0-t) (po, single 200 mg oral dose, Fed (N = 10), read-out: AUClast, Geometric Mean): 88400 ng·h/mL | AUC(0-t) (po, single 200 mg oral dose, Fed (N = 10), read-out: AUClast, Mean): 89900 ng·h/mL | AUC(0-t) (po, single 200 mg oral dose, Fed (N = 10), read-out: AUClast, Median): 89300 ng·h/mL | Cmax (po, single 200 mg oral dose, Fed (N = 10), read-out: Cmax, Geometric Mean): 3640 ng/mL | Cmax (po, single 200 mg oral dose, Fed (N = 10), read-out: Cmax, Mean): 3680 ng/mL | Cmax (po, single 200 mg oral dose, Fed (N = 10), read-out: Cmax, Median): 3770 ng/mL | MRT (po, single 200 mg oral dose, Fed (N = 10), read-out: MRT, Geometric Mean): 22.6 h | MRT (po, single 200 mg oral dose, Fed (N = 10), read-out: MRT, Mean): 23.1 h | MRT (po, single 200 mg oral dose, Fed (N = 10), read-out: MRT, Median): 23.6 h | half-life (po, single 200 mg oral dose, Fed (N = 10), read-out: T1/2, z, Geometric Mean (converted)): 814 min | half-life (po, single 200 mg oral dose, Fed (N = 10), read-out: T1/2, z, Mean (converted)): 829 min | half-life (po, single 200 mg oral dose, Fed (N = 10), read-out: T1/2, z, Median (converted)): 808 min | Tmax (po, single 200 mg oral dose, Fed (N = 10), read-out: Tmax, Geometric Mean): 6.02 h | Tmax (po, single 200 mg oral dose, Fed (N = 10), read-out: Tmax, Mean): 6.9 h | Tmax (po, single 200 mg oral dose, Fed (N = 10), read-out: Tmax, Median): 5.5 h | AUCinf, Geometric Mean Ratio - Fed/Fasted (% of Reference) [7]: 153.63% | AUClast, Geometric Mean Ratio - Fed/Fasted (% of Reference) [7]: 153.20% | Cmax, Geometric Mean Ratio - Fed/Fasted (% of Reference) [7]: 156.43% | Cmax, geometric mean ratio (fed/fasted) [8]: 156.43% | increases for AUCinf, AUC0-t and Cmax in the fed state [8]: approximately 50%
